Assay results published in the NIST ThermoML archive (doi:10.1016/j.tca.2010.08.002).
Numbers after ± are expanded uncertainties.

Details: for molar entropy: 101.33 kPa, Vacuum adiabatic calorimetry; for Triple point temperature: Adiabatic calorimetry

`CCCCn1cc[n+](C)c1.O=S(=O)([O-])C(F)(F)F` [1-butyl-3-methylimidazolium trifluoromethanesulfonate] gave a molar entropy (5 K, Crystal 2) of 0.4944 ± 0.023 J/K/mol, a molar entropy (10 K, Crystal 2) of 3.77 ± 0.06 J/K/mol and a molar entropy (15 K, Crystal 2) of 10.39 ± 0.12 J/K/mol. The molar entropy (20 K, Crystal 2) was 19.26 ± 0.18 J/K/mol, the molar entropy (25 K, Crystal 2) was 29.42 ± 0.22 J/K/mol and the molar entropy (30 K, Crystal 2) was 40.29 ± 0.19 J/K/mol. The molar entropy (35 K, Crystal 2) was 51.44 ± 0.22 J/K/mol, the molar entropy (40 K, Crystal 2) was 62.61 ± 0.25 J/K/mol and the molar entropy (45 K, Crystal 2) was 73.65 ± 0.28 J/K/mol. For the same molecule, the molar entropy (50 K, Crystal 2) was 84.51 ± 0.32 J/K/mol, the molar entropy (55 K, Crystal 2) was 95.14 ± 0.35 J/K/mol and the molar entropy (60 K, Crystal 2) was 105.5 ± 0.4 J/K/mol. The molar entropy (65 K, Crystal 2) was 115.6 ± 0.4 J/K/mol, the molar entropy (70 K, Crystal 2) was 125.5 ± 0.4 J/K/mol and the molar entropy (80 K, Crystal 2) was 144.6 ± 0.5 J/K/mol. For the same molecule, the molar entropy (90 K, Crystal 2) was 162.8 ± 0.5 J/K/mol, the molar entropy (100 K, Crystal 2) was 180.2 ± 0.6 J/K/mol and the molar entropy (110 K, Crystal 2) was 196.9 ± 0.6 J/K/mol. For the same molecule, the molar entropy (130 K, Crystal 1) was 228.7 ± 0.6 J/K/mol, the molar entropy (140 K, Crystal 1) was 243.7 ± 0.7 J/K/mol and the molar entropy (150 K, Crystal 1) was 258.3 ± 0.7 J/K/mol. It also gave a molar entropy (160 K, Crystal 1) of 272.5 ± 0.7 J/K/mol, a molar entropy (170 K, Crystal 1) of 286.5 ± 0.7 J/K/mol and a molar entropy (180 K, Crystal 1) of 300.3 ± 0.8 J/K/mol. It also gave a molar entropy (190 K, Crystal 1) of 313.8 ± 0.8 J/K/mol, a molar entropy (200 K, Crystal 1) of 327.3 ± 0.8 J/K/mol and a molar entropy (210 K, Crystal 1) of 340.6 ± 0.8 J/K/mol. It also gave a molar entropy (220 K, Crystal 1) of 353.9 ± 0.8 J/K/mol, a molar entropy (230 K, Crystal 1) of 367.1 ± 0.9 J/K/mol and a molar entropy (240 K, Crystal 1) of 380.2 ± 0.9 J/K/mol. It also gave a molar entropy (250 K, Crystal 1) of 393.3 ± 0.9 J/K/mol, a molar entropy (260 K, Crystal 1) of 406.4 ± 0.9 J/K/mol and a molar entropy (270 K, Crystal 1) of 419.4 ± 0.9 J/K/mol. It also gave a molar entropy (280 K, Crystal 1) of 432.5 ± 1 J/K/mol, a molar entropy (290 K, Crystal 1) of 445.5 ± 1 J/K/mol and a molar entropy (290.98 K, Crystal 1) of 446.8 ± 1 J/K/mol. For the same molecule, the molar entropy (290.98 K, Liquid) was 513.6 ± 1.1 J/K/mol, the molar entropy (298.15 K, Liquid) was 523.9 ± 1.1 J/K/mol and the molar entropy (300 K, Liquid) was 526.6 ± 1.1 J/K/mol. For the same molecule, the molar entropy (310 K, Liquid) was 540.7 ± 1.1 J/K/mol, the molar entropy (320 K, Liquid) was 554.6 ± 1.1 J/K/mol and the molar entropy (330 K, Liquid) was 568.2 ± 1.2 J/K/mol. The molar entropy (340 K, Liquid) was 581.5 ± 1.2 J/K/mol, the molar entropy (350 K, Liquid) was 594.7 ± 1.2 J/K/mol and the molar entropy (360 K, Liquid) was 607.6 ± 1.2 J/K/mol. It also gave a molar entropy (370 K, Liquid) of 620.3 ± 1.2 J/K/mol, a Triple point temperature (Crystal 1) of 290.98 ± 0.04 K and a Triple point temperature (Crystal 2) of 120 ± 0.1 K.
